{
  "source": "paper PMC8754131",
  "about": "(Microbiology Spectrum, 2022)",
  "key": {"H&E lung pathology": {"experiment": "H&E lung pathology", "type": "in vivo, rat", "conditions": "MRSA-induced pneumonic rats", "procedure": "(C) Pathological evaluation via H&E staining in pneumonic model rats. […] Data were analyzed using a two-tailed Student's t test and are plotted as the mean ± SD for each condition. n = 3; *, P < 0.05; and **, P < 0.01.\n(§1) MRSA and MRPA were isolated from the Affiliated Hospital of Xuzhou Medical University (Jiangsu, China) and obtained from Professor Shengqi Wang (Xuzhou Medical University, Jiangsu, China). Bacterial pneumonia rats were prepared by spraying MRSA suspensions into the lungs via the trachea with a long soft plastic tube, as described in our previous research ([30]). The rats were inoculated using tracheal intubation with 0.2 ml of 10^8 CFU/ml MRSA suspensions. After 8 h, the rats were given medication. […] All of the medicines were sprayed into the rat lungs through the trachea using an intratracheal MicroSprayer Aerosolizer (IA-1B; PennCentury Inc., Wyndmoor, PA, USA) once daily for 3 days without anesthesia.\nPreparation of pneumonic model rats and medicine administration. The\n(§2) clinically isolated bacterial strain MRSA was cultivated in LB medium at 37 °C with\n(§3) continuous shaking (200 rpm) overnight. Then, the concentration of MRSA was\n(§4) determined by the optical density (OD) at 600 nm based on the turbidity of the cell\nsuspension. Subsequently, the bacterial suspension was diluted with LB medium, and\na final density of 10^8 CFU/mL was obtained for animal testing. Male […]"}, "RecA [1]": {"tested_on": "RecA", "experiment": "RecA mRNA by real-time RT-PCR in MRPA", "type": "cell-based", "conditions": "mRNA normalized to 16s"}, "MRSA": {"tested_on": "MRSA", "experiment": "bacterial clearance in lung lavage fluid of rats with MRSA-induced pneumonia", "type": "in vivo, rat", "conditions": "HNP-1 0.1 ml of 20 μg/ml (2 μg); penicillin 12 μg/ml; intratracheal spray once daily for 3 days", "procedure": "(B) Comparison of the bacterial counts in the different treatment groups. The number of MRSA isolated from lung lavage fluid were counted on the agar-containing culture plates followed by culturing for 36 h at 37°C. […] Data were analyzed using a two-tailed Student's t test and are plotted as the mean ± SD for each condition. n = 3; *, P < 0.05; and **, P < 0.01.\nas §1\nPreparation of pneumonic model rats and medicine administration.\nas §2, §3, §4\nsuspension. […]"}, "RecA [2]": {"tested_on": "RecA", "conditions": "real-time RT-PCR, mRNA normalized to 16s", "procedure": "(F) Quantification of RecA mRNA in MRSA by real-time RT-PCR.\nAnalysis of gene expression by real-time RT-PCR. mRNA from RecA and\nLexA was measured by real-time PCR (RT-PCR). XPX-1 cells harvested 3 h after\ninduction and the total RNA was extracted with the TRIzol® Reagent (Thermo\nFisher Scientific, Waltham, MA, USA) according to the manufacturer’s instruction.\nReversed transcription was performed with the ReverTra Ace qPCR RT Kit\n(TOYOBO, Osaka, Japan). The primer sequence of RecA and LexA was as follows:\nRecA (forward 5’-[sequence]-3’, reverse\n5’-[sequence]-3’); LexA (forward\n5’-[sequence]-3 ’ , reverse 5 ’\n-[sequence]-3’ ). The relative expression level of RecA and\nLexA was normalized to 16s by using the 2- CT method(11)."}, "bacteria": {"tested_on": "bacteria", "conditions": "cited from earlier work"}, "E. coli strain XPX-1": {"tested_on": "E. coli strain XPX-1", "experiment": "growth and viable count of E. coli XPX-1 after IPTG-induced expression", "type": "cell-based", "conditions": "XPX-1, 1 mM IPTG, Luria-Bertani medium, 37°C", "procedure": "XPX-1 cells were grown to an approximate optical density (OD600) of 0.4 in 20 ml of Luria−Bertani medium containing kanamycin (50 μg/ml) at 37°C, and then IPTG was added at a final concentration of 1 mM to induce the expression of preproHNP-1.\n(B) Growth curves of E. coli strain XPX-1 containing pET-28a(+)-preproHNP-1 with (+IPTG) or without (−IPTG) 1 mM IPTG induction. […] Data were analyzed using a two-tailed Student's t test and plotted as the mean ± SD for each condition. **, P < 0.01.\nThe induction time points of IPTG are labeled as indicated. […] The induction time points of IPTG are labeled as indicated. (D) Bacterial colony count after IPTG induction. The induction time points are labeled as indicated. The number of viable cells were counted after growing for 16 h on plates containing Luria-Bertani broth media. […] The growth curve of E. coli strain XPX-1 with 1 mM IPTG induction as a positive control and XPX-1 without IPTG induction as a negative control. […] Data were analyzed using a two-tailed Student's t test and are plotted as the mean ± SD for each condition. *, P < 0.05 and **, P < 0.01.\nE. coli strains and plasmids.\nAfter verifying the sequence, the vectors were transformed into E. coli BL21 (DE3) competent cells to obtain XPX-1, which was used to express the recombinant protein preproHNP-1. […]"}, "E. coli": {"tested_on": "E. coli", "experiment": "growth curve of E. coli treated with purified recombinant peptides", "type": "cell-based", "conditions": "20 μg/ml; compared with regular growth medium without IPTG induction", "procedure": "Data were analyzed using a two-tailed Student's t test and are plotted as the mean ± SD for each condition. *, P < 0.05 and **, P < 0.01.\nPreproHNP-1 was purified from E. coli under denaturing conditions ([48]), as described in the Supplementary Materials and Methods. […] The mixture was disrupted using a Soniprep Sonicator (Scientz, Ningbo, China) at the power of 25% for 25 cycles. The resultant TCL was centrifuged at 10,000 g for 25 min. The supernatant was loaded into an Amicon Ultra-0.5 ml centrifugal concentration unit (3 kDa MWCO, Millipore, Burlington, MA, USA) and centrifuged at 5,000 g for 10 min to recover the filtered solution. This step was repeated three times. All filtered solutions were pooled for quality checks and then diluted to a concentration of 20 μg/ml before use in antimicrobial activity assays.\nE. coli strains and plasmids. E. coli strain BL21 (DE3), E. coli strain DH5α and vector pET-28a(+) were stored at−80 °C in our laboratory. The DNA sequence of preproHNP-1 and flanked with EcoR I and Xho I was generated from synthetic oligonucleotides according to a reference sequence (NM_004084.3). The products were ligated into the pET-28a(+) vector encoding a fragment with six histidine (His6)\nThe resulting vectors were transformed into the E. coli DH5α cells and after isolation and purification, they were subjected to the DNA sequence analysis. […]"}, "RecA [3]": {"tested_on": "RecA", "method": "The inclusion bodies were solubilized in denaturing solution (20 mM Tris, 8 M urea, 20 mM DTT, pH 8.5) at a ratio of 1:20 (grams of inclusion body wet weight: mL of volume) and the suspension was shaken gently for 4 h at room temperature.\nAfter centrifugation at 12,000 ×g for 15 min, the supernatant was diluted directly into refolding buffer (20 mM Tris,1 mM cystine, 3 mM cysteine, 2 M urea, pH 10.0).\nAfter refolding at 4°C overnight, the sample pH was adjusted to 4.5 and the sample was centrifuged at 4,000 ×g for 20 min.\nThe solubilized protein samples were loaded onto a pre-equilibrated HiTrap Chelating HP (5 mL, GE Healthcare, Chicago, IL, USA) ata flow rate of 10 mL/min inbuffer A (20 mM Tris, 2 M NaCl, pH 7.5). […] The purified preproHNP-1 was quantified with BCA according to standard procedures. […]\nimidazole) and analyzed by a 12% Tris-Tricine gel followed by Coomassie brilliant blue G-250 staining. […]\nProteomics analysis. […] After in-gel digestion by trypsin, the samples were analyzed by LC-MS/MS using a homemade column (75 μm internal diameter ×15 cm long) packed with 3 μm C18 reverse phase beads (Michrom Bioresources, Inc., Auburn, CA, USA), a 60 min gradient was performed on an LTQ-Orbitrap Velos mass spectrometer (Thermo Fisher Scientific, San Jose, CA, USA). […]"}},
  "note": "No end group written: not given here.",
  "data": [
    {"molecule": "penicillin", "values": [
      {"measurement": "exudation, inflammation, hemorrhage (H&E)", "setting": "H&E lung pathology", "value": "alleviated these symptoms to a certain degree"},
      {"measurement": "RecA expression in MRPA", "setting": "RecA [1]", "value": "increased significantly"},
      {"measurement": "bacterial clearance effect", "setting": "MRSA", "value": "neither HNP-1 nor penicillin treatment had any effect"},
      {"measurement": "RecA expression in MRSA", "setting": "RecA [2]", "value": "increased significantly"}
    ]},
    {"molecule": "HNP-2: antimicrobial peptide cited for filamentation (CYCRIPACIAGERRYGTCIYQGRLWAFCC; ends and bridges not checked; cysteine pairing not given here; UniProt P59665 66-94, looked up)", "values": [
      {"measurement": "AMP-induced filamentation", "setting": "bacteria", "value": "filamentation has also been described"}
    ]},
    {"molecule": "indolicidin (ILPWKWPWWPWRR; ends and bridges not checked; UniProt P33046 131-143, looked up) [antimicrobial peptide cited for filamentation]", "values": [
      {"measurement": "AMP-induced filamentation", "setting": "bacteria", "value": "filamentation has also been described"}
    ]},
    {"molecule": "PR-39", "values": [
      {"measurement": "AMP-induced filamentation", "setting": "bacteria", "value": "filamentation has also been described"}
    ]},
    {"molecule": "HNP-5: antimicrobial peptide cited for filamentation (peptide, UniProt Q01523 20-94, looked up, Defensin-5, antimicrobial peptide cited for filamentation) Defensin alpha 5: ESLQERADEATTQKQSGEDNQDLAISFAGNGLSALRTSGSQARATCYCRTGRCATRESLSGVCEISGRLYRLCCR", "values": [
      {"measurement": "AMP-induced filamentation", "setting": "bacteria", "value": "filamentation has also been described"}
    ]},
    {"molecule": "preproHNP-1: full-length precursor of HNP-1 tagged with six histidine residues, cloned into pET-28a(+), expressed in E. coli XPX-1 (protein, UniProt P59665 1-94, looked up, full-length His6 tag) MRTLAILAAILLVALQAQAEPLQARADEVAAAPEQIAADIPEVVVSLAWDESLAPKHPGSRKNMACYCRIPACIAGERRYGTCIYQGRLWAFCC", "values": [
      {"measurement": "OD600 reached after induction", "setting": "E. coli strain XPX-1", "value": "~1"},
      {"measurement": "growth curve of E. coli in medium with purified protein", "setting": "E. coli", "value": "did not differ from those cultured in regular growth medium without IPTG induction"},
      {"measurement": "interaction with RecA", "setting": "RecA [3]; anti-RecA co-immunoprecipitation", "value": "HNP-1, but not full length 6x His-tagged preproHNP-1, interacted with RecA"},
      {"measurement": "co-precipitation with RecA over induction time", "setting": "RecA [3]; anti-RecA immunoprecipitation, Western blot with anti-HNP-1", "value": "decreased with time"}
    ]}
  ]
}
